Assay results taken from PubChem BioAssay (NCI).
Where “and” joins values, the source holds several entries; their conditions need not be identical. Identical values can stand only once.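 A five-concentration, 48-hour dose response in 96-well plates underlies each endpoint, interpolated linearly between surrounding concentrations. GI50 marks 50% less growth. TGI marks complete inhibition of growth.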

Assays:
P388/ADR leukemia = assay: NCI tumour cell line growth inhibition, 48 h
SN12K1 renal = assay: NCI tumour cell line growth inhibition, 48 h

## Cc1[nH]c(=O)[nH]c(=O)c1N(CCF)CCCl
P388/ADR leukemia
  GI50: 242 µM
  TGI: 557 µM and 1110 µM
SN12K1 renal
  GI50: 187 µM
  TGI: 513 µM and 703 µM and 657 µM
